Values of other authors, collected in patent US10927398B2, “Compositions for CYP450 phenotyping using saliva samples” (Concordia University, Inc., priority 2015, dated 2021).
Read-outs that look alike come from different tables or passages of the source.

What was measured:
[1] = cited from earlier work
[2] = cited from earlier work; remark: listed apart in the source
plasma protein = conditions: Table of Exemplary Drugs, cited from earlier work
[3] = Table of Exemplary Drugs, CYP2D6
[4] = Table of Exemplary Drugs, CYP3A4
[5] = Table of Exemplary Drugs, CYP1A2
[6] = Table of Exemplary Drugs, CYP2C19
[7] = Table of Exemplary Drugs, CYP2C9

Row | Compound | HALF-LIFE [1, 4] [h] | PLASMA PROTEIN BINDING (plasma protein; CYP3A4) | ORAL BIOAVAILABILITY [2, 4] | further results
1 | OCCN1CCN(CCCN2c3ccccc3Sc3ccc(Cl)cc32)CC1 [Perphenazine] | – | – | – | HALF-LIFE [1, 3]: 9 to 12 h; ORAL BIOAVAILABILITY [2, 3]: 20%
2 | O=C(NCC1CCCCN1)c1cc(OCC(F)(F)F)ccc1OCC(F)(F)F (stereo not shown) [Flecainide] | – | – | – | HALF-LIFE [1, 3]: 20 h; PLASMA PROTEIN BINDING (plasma protein; CYP2D6): 40%; ORAL BIOAVAILABILITY [2, 3]: 70-95%
3 | O=C(C1CCCCC1)N1CC(=O)N2CCc3ccccc3C2C1 (stereo not shown) [Praziquantel (Biltricide), Praziquantel] | 0.8 to 3 | 80% | 80% | –
4 | COc1ccc([C@@H]2Sc3ccccc3N(CCN(C)C)C(=O)[C@@H]2OC(C)=O)cc1 [Diltiazem (Cardizem), Diltiazem] | 3 to 6 | 70-80% ^ | >40% | –
5 | CN(C)C(=O)C(CCN1CCC(O)(c2ccc(Cl)cc2)CC1)(c1ccccc1)c1ccccc1 [Loperamide (Imodium), Loperamide] | 9 to 14 | – | 0.30% | –
6 | CC(C)NCC(O)COc1cccc2ccccc12 (stereo not shown) [Propranolol] | – | – | – | HALF-LIFE [1, 5]: 4 h; HALF-LIFE [1, 6]: 3 to 6 h; HALF-LIFE [1, 3]: 3 to 6 h; ORAL BIOAVAILABILITY [2, 5]: 100%; ORAL BIOAVAILABILITY [2, 6]: 30-70%; ORAL BIOAVAILABILITY [2, 3]: 30-70%
7 | CC1(C)O[C@@H]2[C@@H](CO[C@@]3(COS(N)(=O)=O)OC(C)(C)O[C@@H]23)O1 [Topiramate (Topamax), Topiramate] | – | 15-41% ^ | 80% | –
8 | CN1CCN2c3ncccc3Cc3ccccc3C2C1 (stereo not shown) [Mirtazapine] | – | – | – | ORAL BIOAVAILABILITY [2, 3]: 50%
9 | Nc1ccc(S(=O)(=O)c2ccc(N)cc2)cc1 [Dapsone (Avlosulfon), Dapsone] | – | 70-90% ^ | 86-104% | –
10 | CCOC(=O)C1=C(COCCN)NC(C)=C(C(=O)OC)C1c1ccccc1Cl (stereo not shown) [Amlodipine (Norvasc), Amlodipine] | – | – | 64-90% | –
11 | C=C[C@H]1C[N@@]2CC[C@H]1C[C@H]2[C@H](O)c1ccnc2ccc(OC)cc12 [Quinine] | – | – | 76-88% | –
12 | COc1cc2c(c(OC)c1OC)-c1ccc(OC)c(=O)cc1[C@@H](NC(C)=O)CC2 [Colchicine] | 26.6 to 31.2 | – | 45% | –
13 | COc1ccc(C(CN(C)C)C2(O)CCCCC2)cc1 (stereo not shown) [Venlafaxine] | – | – | – | PLASMA PROTEIN BINDING (plasma protein; CYP2D6): 27-30% ^; ORAL BIOAVAILABILITY [2, 3]: 12.6%
14 | CC(C)(C)NC[C@H](O)COc1nsnc1N1CCOCC1 [Timolol] | – | – | – | PLASMA PROTEIN BINDING (plasma protein; CYP2D6): <10%; ORAL BIOAVAILABILITY [2, 3]: 90%
15 | CC(C)CN(C[C@@H](O)[C@H](Cc1ccccc1)NC(=O)O[C@H]1CO[C@H]2OCC[C@H]21)S(=O)(=O)c1ccc(N)cc1 [Darunavir (Prezista), Darunavir] | – | – | 37% | –
16 | COc1ccc2[nH]cc(CCNC(C)=O)c2c1 [Melatonin] | – | – | – | HALF-LIFE [1, 5]: 0.583 to 0.833 h; ORAL BIOAVAILABILITY [2, 5]: 3-76%
17 | CN(C)CCCN1c2ccccc2CCc2ccccc21 [Imipramine] | – | – | – | PLASMA PROTEIN BINDING (plasma protein; CYP1A2): 60-96% ^; PLASMA PROTEIN BINDING (plasma protein; CYP2C19): 89%; PLASMA PROTEIN BINDING (plasma protein; CYP2D6): 89%; ORAL BIOAVAILABILITY [2, 5]: 22-77%; ORAL BIOAVAILABILITY [2, 6]: 94-96%; ORAL BIOAVAILABILITY [2, 3]: 94-96%
18 | CC(C)COCC(CN(Cc1ccccc1)c1ccccc1)N1CCCC1 (stereo not shown) [Bepridil (Vascor), Bepridil] | 42 | – | 60% | –
19 | COc1ccc2c(c1)N(C[C@H](C)CN(C)C)c1ccccc1S2 [Levomepromazine] | – | – | – | HALF-LIFE [1, 3]: 15 h; ORAL BIOAVAILABILITY [2, 3]: 50-60%
20 | CN1C[C@H](C(=O)N[C@]2(C)O[C@@]3(O)[C@@H]4CCCN4C(=O)[C@H](Cc4ccccc4)N3C2=O)C=C2c3cccc4[nH]cc(c34)C[C@H]21 [Ergotamine (Ergomar), Ergotamine] | – | – | – | HALF-LIFE ([1]; in vivo): 1.5 to 2.5 h; ORAL BIOAVAILABILITY ([2]; in vivo, po): <5%
21 | CCC1(C)CC(=O)NC1=O (stereo not shown) [Ethosuximide (Zarontin), Ethosuximide] | 25 to 60 | – | 93% | –
22 | CN1CC(=O)N2[C@H](c3ccc4c(c3)OCO4)c3[nH]c4ccccc4c3C[C@@H]2C1=O [Tadalafil (Cialis), Tadalafil] | 15 to 35 | 94% | – | –
23 | CC(N)Cc1ccccc1 (stereo not shown) [Amphetamine] | – | – | – | ORAL BIOAVAILABILITY ([2]; in vivo, po): 100+%

Row | Compound | HALF-LIFE [1, 4] [h] | PLASMA PROTEIN BINDING (plasma protein; CYP3A4) | ORAL BIOAVAILABILITY [2, 4] | further results
24 | CC(c1cc2ccccc2s1)N(O)C(N)=O (stereo not shown) [Zileuton] | – | – | – | HALF-LIFE [1, 5]: 2.5 to 3.2 h; PLASMA PROTEIN BINDING (plasma protein; CYP1A2): 93%
25 | Cc1cccc(C)c1OCC(=O)N[C@@H](Cc1ccccc1)[C@@H](O)C[C@H](Cc1ccccc1)NC(=O)[C@H](C(C)C)N1CCCNC1=O [Lopinavir (Kaletra), Lopinavir] | 5 to 6 | 98-99% ^ | – | –
26 | CC(C)Cc1ccc(C(C)C(=O)O)cc1 (stereo not shown) [Ibuprofen] | – | – | – | ORAL BIOAVAILABILITY [2, 7]: 87-100%
27 | CN1C2CCCC1CC(NC(=O)c1nn(C)c3ccccc13)C2 (stereo not shown) [Granisetron (Kytril), Granisetron] | 3 to 24 | 65% | – | –
28 | COc1cc([C@@H]2c3cc4c(cc3[C@@H](O[C@@H]3O[C@@H]5CO[C@@H](c6cccs6)O[C@H]5[C@H](O)[C@H]3O)[C@H]3COC(=O)[C@H]23)OCO4)cc(OC)c1O [Teniposide] | 5 | >99% | – | HALF-LIFE [1, 6]: 5 h; PLASMA PROTEIN BINDING (plasma protein; CYP2C19): >99%
29 | Cc1nc(Nc2ncc(C(=O)Nc3c(C)cccc3Cl)s2)cc(N2CCN(CCO)CC2)n1 [Dasatinib (Sprycel), Dasatinib] | 3 to 5 | 96% | – | –
30 | CC1OC2(CS1)CN1CCC2CC1 (stereo not shown) [Cevimeline (Evoxac), Cevimeline] | 4 to 6 | <20% | – | –
31 | C=C(c1ccc(C(=O)O)cc1)c1cc2c(cc1C)C(C)(C)CCC2(C)C [Bexarotene (Targretin), Bexarotene] | 7 | 99% | – | –
32 | NC(=O)C[S+]([O-])C(c1ccccc1)c1ccccc1 (stereo not shown) [Modafinil (Provigil), Modafinil] | 7.5 to 15 | 60% | – | –
33 | O=C(O)Cc1ccccc1Nc1c(Cl)cccc1Cl [Diclofenac] | – | – | – | HALF-LIFE [1, 7]: 1.9 to 2.2 h; ORAL BIOAVAILABILITY [2, 7]: 50%
34 | CCOC(=O)C1=C(C)NC(C)=C(C(=O)OC)C1c1cccc(Cl)c1Cl (stereo not shown) [Felodipine (Plendil), Felodipine] | – | – | 13-20% | –
35 | COc1cc2ncnc(Nc3ccc(F)c(Cl)c3)c2cc1OCCCN1CCOCC1 [Gefitinib (Iressa), Gefitinib] | – | – | 60% | –
36 | O=C1Cc2cc(CCN3CCN(c4nsc5ccccc45)CC3)c(Cl)cc2N1 [Ziprasidone (Geodon), Ziprasidone] | 7 | – | 60% | –
37 | Clc1ccc2nsnc2c1NC1=NCCN1 [Tizanidine] | – | – | – | PLASMA PROTEIN BINDING (plasma protein; CYP1A2): 30%; ORAL BIOAVAILABILITY [2, 5]: 40%
38 | Cc1c(OCC(F)(F)F)ccnc1C[S+]([O-])c1nc2ccccc2[nH]1 (stereo not shown) [Llansoprazole] | – | – | – | HALF-LIFE [1, 6]: 0.9 to 1.5 h; PLASMA PROTEIN BINDING (plasma protein; CYP2C19): 97-99% ^
39 | CC(C)(C)NC(=O)[C@H]1CC[C@H]2[C@@H]3CC[C@H]4NC(=O)C=C[C@]4(C)[C@H]3CC[C@]12C [Finasteride (Proscar), Finasteride] | 4.5 | – | 65% | –
40 | Cc1cc2c(s1)Nc1ccccc1N=C2N1CCN(C)CC1 [Olanzapine] | – | – | – | HALF-LIFE [1, 5]: 21 to 54 h; ORAL BIOAVAILABILITY [2, 5]: 87%
41 | CC(C)CN(C[C@@H](OP(=O)(O)O)[C@H](Cc1ccccc1)NC(=O)O[C@H]1CCOC1)S(=O)(=O)c1ccc(N)cc1 [Fosamprenavir (Lexiva), Fosamprenavir] | 7.7 | 90% | – | –
42 | C=C[C@H]1C[N@@]2CC[C@H]1C[C@@H]2[C@@H](O)c1ccnc2ccc(OC)cc12 [Quinidine] | – | 50-88% ^ | 70-80% | –
43 | CN(C)CCc1c[nH]c2ccc(C[C@H]3COC(=O)N3)cc12 [Zolmitriptan] | – | – | – | PLASMA PROTEIN BINDING (plasma protein; CYP1A2): 25%; ORAL BIOAVAILABILITY [2, 5]: ~40%
44 | CC(=O)O[C@@]12CO[C@@H]1C[C@H](O)[C@@]1(C)C(=O)[C@H](O)C3=C(C)[C@@H](OC(=O)[C@H](O)[C@@H](NC(=O)OC(C)(C)C)c4ccccc4)C[C@@](O)([C@@H](OC(=O)c4ccccc4)[C@H]21)C3(C)C [Docetaxel (Taxotere), Docetaxel] | 11.1 | 94-97% ^ | – | –
45 | CS(=O)(=O)CCNCc1ccc(-c2ccc3ncnc(Nc4ccc(OCc5cccc(F)c5)c(Cl)c4)c3c2)o1 [Lapatinib (Tykerb), Lapatinib] | 24 | >99% | – | –
46 | C[C@H](/C=C/[C@H](C)C(C)(C)O)[C@H]1CC[C@H]2/C(=C/C=C3C[C@@H](O)C[C@H](O)C3)CCC[C@]12C [Paricalcitol (Zemplar), Paricalcitol] | 5 to 7 | – | 72% | –
